For orientation: IC50 means the midpoint of a concentration-inhibition curve.

In one assay the test system is HBsAg. Put plainly: HBsAg assay (CLIA) in HepG2.2.15 cells. It is filed as cell-based, HBV. As to conditions: HepG2.2.15 cells, secreted HBsAg, CLIA; read-out: IC50 (HBsAg assay). Summed up: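 IC50 taken from dose-response curves as the concentration halving secreted HBsAg relative to DMSO control. Measured by chemiluminescence immunoassay of culture supernatant from constitutively HBV-expressing HepG2.2.15 cells, seeded at 1.5×10^4/well in duplicate and exposed to three-fold serial compound dilutions at 1% final DMSO.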
For “2,3-difluoro-5-[2-(2-pyridyl)-7,8-dihydro-5H-pyrido[4,3-d]pyrimidin-6-yl]phenol [Example 18]”, the half-maximal inhibitory concentration (IC50) amounted to 22000 nM.

The assay is the same for the next values; noted with them: Hepatitis B virus, HepG2.2.15, read-out: IC50 (HBsAg assay).
For `CS(=O)(=O)c1ccc(N2CCc3nc(-c4ccccn4)nc(O)c3C2)cc1` [Example 80, 6-(4-methylsulfonylphenyl)-2-(2-pyridyl)-3,5,7,8-tetrahydropyrido-[4,3-d]pyrimidin-4-one], the half-inhibitory concentration (IC50) amounted to 5940 nM.

`COc1cc(N2CCc3nc(-c4ncccn4)ncc3C2)cc(F)c1C#N` [Example 77, 2-fluoro-6-methoxy-4-(2-pyrimidin-2-yl-7,8-dihydro-5H-pyrido[4,3-d]pyrimidin-6-yl)benzonitrile]: the IC50 came out at 265 nM.

Consider `Fc1ccc(N2CCc3nc(-c4ccccn4)ncc3C2)c(F)c1` [Example 14, 6-(2,4-difluorophenyl)-2-(2-pyridyl)-7,8-dihydro-5H-pyrido[4,3-d]pyrimidine], for which the IC50 was 9510 nM.

On to `COc1cc(Cl)nc(N2CCc3nc(-c4ncccn4)ncc3C2)c1` [Example 108, 6-(6-chloro-4-methoxy-2-pyridyl)-2-pyrimidin-2-yl-7,8-dihydro-5H-pyrido[4,3-d]pyrimidine], for which the IC50 came to 263 nM.

For the molecule `Fc1cc(OC(F)(F)F)cc(N2CCc3nc(-c4ncccn4)ncc3C2)c1` [Example 118, 6-[3-fluoro-5-(trifluoromethoxy)phenyl]-2-pyrimidin-2-yl-7,8-dihydro-5H-pyrido[4,3-d]pyrimidine], the 50% inhibitory concentration (IC50) worked out at 4980 nM.

`COCCOc1cc(N2CCc3nc(-c4ccccn4)ncc3C2)cc(F)c1F` [Example 23, 6-[3,4-difluoro-5-(2-methoxyethoxy)phenyl]-2-(2-pyridyl)-7,8-dihydro-5H-pyrido[4,3-d]pyrimidine]: the IC50 is 549 nM.

Turning to `COc1ccc(N2CCc3nc(-c4ccccn4)ncc3C2)c(F)c1F` [Example 61, 6-(2,3-difluoro-4-methoxy-phenyl)-2-(2-pyridyl)-7,8-dihydro-5H-pyrido[4,3-d]pyrimidine], the IC50 was 3030 nM.

As for `Fc1ccc(N2CCc3nc(-c4ccccn4)ncc3C2)cc1Br` [Example 51, 6-(3-bromo-4-fluoro-phenyl)-2-(2-pyridyl)-7,8-dihydro-5H-pyrido[4,3-d]pyrimidine], the half-inhibitory concentration (IC50) turned out to be 5360 nM.

For `FC(F)(F)Oc1cccc(N2CCc3nc(-c4ncccn4)ncc3C2)c1` [Example 43, 2-pyrimidin-2-yl-6-[3-(trifluoromethoxy)phenyl]-7,8-dihydro-5H-pyrido[4,3-d]pyrimidine], the IC50 worked out at 1860 nM.

On to `COc1nc(N2CCc3nc(-c4ncccn4)ncc3C2)ccc1F` [Example 72, 6-(5-fluoro-6-methoxy-2-pyridyl)-2-pyrimidin-2-yl-7,8-dihydro-5H-pyrido[4,3-d]pyrimidine], for which the IC50 came out at 1430 nM.

For `CS(=O)(=O)c1ccc(N2CCc3nc(-c4ccc(Cl)cn4)ncc3C2)cc1` [Example 6, 2-(5-chloro-2-pyridyl)-6-(4-methylsulfonylphenyl)-7,8-dihydro-5H-pyrido[4,3-d]pyrimidine], the IC50 amounted to 18800 nM.

Regarding `CNC(=O)c1cc(F)cc(N2CCc3nc(-c4ncccn4)ncc3C2)c1` [Example 103, 3-fluoro-N-methyl-5-(2-pyrimidin-2-yl-7,8-dihydro-5H-pyrido[4,3-d]pyrimidin-6-yl)benzamide], the IC50 turned out to be 2770 nM.

`CCC1CN(c2ccc(S(C)(=O)=O)cc2)Cc2cnc(-c3ccccn3)nc21` (stereo not shown) [Example 7, 8-ethyl-6-(4-methylsulfonylphenyl)-2-(2-pyridyl)-7,8-dihydro-5H-pyrido[4,3-d]pyrimidine]: the IC50 was 5170 nM.

As for `N#Cc1cc(F)cc(N2CCc3nc(-c4ncccn4)ncc3C2)c1` [Example 101, 3-fluoro-5-(2-pyrimidin-2-yl-7,8-dihydro-5H-pyrido[4,3-d]pyrimidin-6-yl)benzonitrile], the half-inhibitory concentration (IC50) came to 674 nM.

In another assay the test system is HBV DNA. Put plainly: HBV DNA assay (real-time qPCR) in HepG2.2.15 cells. Conditions: Hepatitis B virus, 144 h, extracellular HBV DNA, 6 days, read-out: IC50 (Anti HBV DNA production activity). In kind it is cell-based. On the procedure: HepG2.2.15 cells (Acs et al. Proc Natl Acad Sci USA, 84, (1987), 4641-4), a constitutively HBV-expressing cell line were cultured in DMEM+Glutamax-I medium (Invitrogen, Carlsbad, Calif., USA), supplemented with 10% fetal bovine serum (Invitrogen) and G418 (Invitrogen) at a final concentration of 200 mg/L and maintained in 5% CO2 at 37° C.
The assay employs real-time qPCR (TaqMan) to directly measure extracellular HBV DNA copy number. HepG2.2.15 cells were plated in 96-well microtiter plates. Only the interior wells were utilized to reduce “edge effects” observed during cell culture, the exterior wells were filled with complete medium to help minimize sample evaporation. On the following day, the HepG2.2.15 cells were washed and the medium was replaced with complete medium containing various concentrations of a test compound in triplicate. 3TC was used as the positive control, while media alone was added to cells as a negative control (virus control, VC). Three days later, the culture medium was replaced with fresh medium containing the appropriately diluted drug. Six days following the initial administration of the test compound, the cell culture supernatant was collected, treated with pronase and then used in a real-time qPCR/TaqMan assay to determine HBV DNA copy numbers. Antiviral activity was calculated from the reduction in HBV DNA levels (IC50). […]
On to `CS(=O)(=O)c1ccc(N2CCc3nc(-c4ccccn4)nc(O)c3C2)cc1` [Example 80, 6-(4-methylsulfonylphenyl)-2-(2-pyridyl)-3,5,7,8-tetrahydropyrido-[4,3-d]pyrimidin-4-one], for which the half-inhibitory concentration (IC50) was 160 nM.

The values above are taken from patent publication US10196391B2 (Hoffmann-La Roche Inc., priority 2014, dated 2019).
